# Results from BindingDB's records for doi:10.1021/jm00038a005 (Bristol-Myers Squibb, 1994).
# pIC50, pKi: −log10 of the molar value.
# Target: T1, Dimer of Gag-Pol polyprotein [489-587] (Human immunodeficiency virus 1, UniProt P12497)
# T1 construct: 489-587
# Assay: Protease Inhibition Assay
# Conditions: pH 5.5; 37 °C
# Procedure: Sensitivity of HIV-1 protease activity to protease inhibitors was determined by a peptide substrate cleavage assay. Protease products were analyzed on a reverse-phase high-pressure liquid chromatograph.
SMILES,pIC50,pKi
"CC(C)(C)OC(=O)N[C@@H](CC1CCCCC1)[C@H](O)CNC[C@@H](O)[C@H](CC1CCCCC1)NC(=O)OC(C)(C)C [(R,S)-[Iminobis[1-(cyclohexylmethyl)-2-hydroxy-3,1-propanediyl]]bis[carbamic acid], Bis(1,1-dimethylethylester)]",6.10,
"CC(C)(C)OC(=O)N[C@@H](Cc1ccccc1)[C@H](O)CNC[C@@H](O)[C@H](Cc1ccccc1)NC(=O)OC(C)(C)C [tert-butyl N-[(2S,3R)-4-{[(2R,3S)-3-{[(tert-butoxy)carbonyl]amino}-2-hydroxy-4-phenylbutyl]amino}-3-hydroxy-1-phenylbutan-2-yl]carbamate]",,7.00
"CC(C)(C)OC(=O)N[C@@H](CCc1ccccc1)[C@H](O)CNC[C@@H](O)[C@H](Cc1ccccc1)NC(=O)OC(C)(C)C [tert-butyl N-[(2S,3R)-4-{[(2R,3S)-3-{[(tert-butoxy)carbonyl]amino}-2-hydroxy-5-phenylpentyl]amino}-3-hydroxy-1-phenylbutan-2-yl]carbamate]",6.30,
CC(C)(C)OC(=O)N[C@@H](Cc1ccccc1)[C@H](O)CNC[C@@H](O)[C@H](Cc1ccc(O)cc1)NC(=O)OC(C)(C)C [BMS-186318 analog 4],7.00,
